In the supplement of paper PMC12532568:
Structures can show the parent of a compound that is named as a salt.

System: Danio rerio larvae Tg(actc1b:ZsGreen-LC3), 3 dpf
Experiment: LC3 puncta relative area vs vehicle (mean) (log2 fold change); higher = more autophagy
Details: treatment time 16 h
Description: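 Transgenic ZsGreen-LC3 zebrafish larvae (2 dpf) were treated for 16 h with natural bioactives at 10, 50, 100 or 250 µM. Skeletal-muscle LC3 puncta area was measured by high-content imaging with or without 4 h of 100 mM NH4Cl, normalised to vehicle, and reported as the mean log2 fold change over 4–21 larvae.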

Row | Structure (SMILES) | LC3 puncta (log2) (NH4Cl: + NH4Cl, 10 µM) | LC3 puncta (log2) (NH4Cl: + NH4Cl, 50 µM) | LC3 puncta (log2) (NH4Cl: + NH4Cl, 100 µM) | LC3 puncta (log2) (NH4Cl: + NH4Cl, 250 µM) | LC3 puncta (log2) (NH4Cl: - NH4Cl, 10 µM) | LC3 puncta (log2) (NH4Cl: - NH4Cl, 50 µM) | LC3 puncta (log2) (NH4Cl: - NH4Cl, 100 µM) | LC3 puncta (log2) (NH4Cl: - NH4Cl, 250 µM)
1 | Cc1ccc(C(C)C)c(O)c1 [Thymol] | 0.947 | 1.4 | 1.68 | 1.55 | 0.0897 | 0.575 | 0.869 | 1.65
2 | C[C@H](O)CCO [(S)-1,3-Butylene Glycol] | 0.505 | -0.0626 | 0.509 | – | -0.143 | -0.512 | -0.016 | 0.014
3 | C[C@@H]1O[C@@H](OC[C@H]2O[C@@H](Oc3c(-c4ccc(O)c(O)c4)oc4cc(O)cc(O)c4c3=O)[C@H](O)[C@@H](O)[C@@H]2O)[C@H](O)[C@H](O)[C@H]1O [Rutin hydrate] | 0.351 | 0.0277 | 0.401 | 0.491 | -0.169 | -0.116 | 0.291 | 0.18
4 | C[C@@H](CO)C(=O)O [Sodium β-hydroxyisobutyrate] | 0.761 | 0.505 | 0.553 | 0.277 | 0.14 | -0.573 | -0.233 | -0.327
5 | CCCCCCCC(=O)O [Octanoic acid] | 0.0521 | 0.079 | 0.553 | – | -0.257 | 0.356 | 0.0532 | –
6 | NC(=O)c1ccc[n+]([C@@H]2O[C@H](COP(=O)([O-])O)[C@@H](O)[C@H]2O)c1 [Nicotinamide mononucleotide] | 1.01 | 0.775 | 0.349 | 0.19 | -0.0834 | -0.119 | -0.518 | -0.271
7 | C/C=C\C=C\C(=O)O [(2E,4Z)-2,4-hexadienoic acid] | 0.772 | 1.14 | 1.21 | 0.824 | 0.44 | -0.191 | 1.17 | -0.266
8 | C[C@@H](O)C(=O)O [(2R)-2-hydroxypropanoic acid] | 0.532 | 0.237 | 0.304 | 0.589 | 0.00532 | -0.27 | 0.144 | -0.203
9 | NC(=O)c1cccnc1 [Nicotinamide NAM] | 0.821 | 0.328 | 0.663 | 0.606 | -0.196 | -0.178 | 0.12 | -0.631
10 | C[C@@H](O)CCO [(R)-1,3-Butylene Glycol] | 0.22 | -0.0174 | 0.179 | 0.0875 | 0.0281 | -0.261 | -0.294 | -0.184
11 | O=C(O)c1cccnc1 [Nicotinic acid] | 0.718 | 0.758 | 0.79 | 0.941 | 0.0747 | 0.284 | 0.456 | 0.418
12 | O=C(O)C=CC(=O)O [Butenedioic acid] | 0.693 | 1.1 | 1.29 | 1.14 | 0.588 | 0.758 | 0.837 | 0.447
13 | O=c1oc2c(O)c(O)cc3c(=O)oc4c(O)c(O)cc1c4c23 [Ellagic acid] | 0.705 | 0.347 | 0.0739 | 0.0325 | 0.154 | -0.476 | -0.223 | 0.00958
14 | Cc1ccc(C(C)C)cc1O [Carvacrol] | 0.565 | 1.07 | 1.84 | 1.67 | 0.493 | 0.93 | 1.08 | 1.92
15 | C[n+]1cccc(C(=O)[O-])c1 [Trigonelline] | 0.266 | 0.266 | 0.112 | – | 0.202 | 0.619 | 0.435 | -0.0876
16 | CCCCCCCCCC(=O)[O-].[Na+] [Sodium decanoate] | 0.524 | -0.00931 | -1.55 | -0.382 | 0.285 | -0.0288 | -0.846 | 0.298
17 | CCOC(=O)CC(O)(CC(=O)OCC)C(=O)OCC [Triethyl citrate] | 0.559 | 0.524 | 1.06 | 1.44 | 0.227 | 0.572 | 0.551 | 0.957
18 | CC(=O)C(C)=O [Biacetyl] | 0.347 | 0.581 | 0.946 | 0.981 | 0.0128 | 0.343 | 0.699 | 0.218
19 | CC(O)C(=O)O (configuration not stated) [Lactic acid] | 0.558 | 0.374 | 0.472 | 0.345 | 0.287 | -0.151 | -0.219 | 0.079
20 | C/C1=C2N=C(/C=C3N=C(/C(C)=C4\[N-]C(C(CC(N)=O)C4(C)CCC(=O)NCC(C)OP(=O)([O-])OC4C(CO)OC(n5cnc6cc(C)c(C)cc65)C4O)C4(C)N=C1C(CCC(N)=O)C4(C)CC(N)=O)C(CCC(N)=O)C\3(C)C)C(CCC(N)=O)C/2(C)CC(N)=O.[CH3-].[Co+3] (configuration not stated) [Methylcobalamin] | 0.507 | 0.557 | 0.386 | -0.454 | -0.125 | -0.236 | 0.239 | -0.503
21 | NC(=O)c1ccc[n+]([C@@H]2O[C@H](CO)[C@@H](O)[C@H]2O)c1 [Nicotinamide riboside chloride] | 0.917 | 0.613 | 0.663 | 0.76 | 0.148 | -0.293 | 0.0672 | 0.257
22 | CC(C)C[C@H](N)C(=O)O [L-Leucine] | 0.433 | 0.183 | 0.128 | -0.405 | -0.25 | -0.762 | -0.689 | -0.726
